Source: patent US20210169984A1, “SENSITIZING CANCER TO DEATH RECEPTOR AGONISTS WITH KINASE INHIBITORS” (The Johns Hopkins University, priority 2016, published 2021)
Where a name gives a salt, the structure may show the parent alone.

These molecules were tested on HT29 (CRC) cells (assay: KI library screen for TRAIL sensitization (KI pretreatment, then TRAILPEG; MTT cell death assay)). Settings: HT29 cells pretreated with KI for 24 hours before TRAILPEG.
Assay type: cell-based, human
Description: The screening is performed using an MTT cell death assay in CRC cells with different TRAIL sensitivities.

Molecule	efficacy when combined with TRAILPEG (relative cell death, KI+TRAILPEG / KI alone)
Cn1c(=O)n(-c2ccc(C(C)(C)C#N)cc2)c2c3cc(-c4cnc5ccccc5c4)ccc3ncc21 [BEZ235 (NVP-BEZ235, Dactolisib), Dactolisib]	synergistic efficacy
COc1cccc(-c2cc(=O)c3ccccc3o2)c1N [PD98059]	synergistic efficacy
O=C(Nc1ccc(OC(F)(F)F)cc1)c1sccc1NCc1ccnc2ccccc12 [OSI-930]	synergistic efficacy
Cc1cc(Nc2cc(N3CCN(C)CC3)nc(/C=C/c3ccccc3)n2)n[nH]1 [ENMD-2076]	synergistic efficacy
CC[C@H](Nc1ncnc2[nH]cnc12)c1nc2cccc(F)c2c(=O)n1-c1ccccc1 [CAL-101 (Idelalisib, GS-1101), Idelalisib]	synergistic efficacy
CCO.N#CC(=C(/N)Sc1ccccc1N)/C(C#N)=C(\N)Sc1ccccc1N [U0126-EtOH]	synergistic efficacy

Same assay, conditions: HT-29 colorectal adenocarcinoma

Molecule	KIs that sensitize cancer cells to TRAIL-based agents
Cn1c(=O)n(-c2ccc(C(C)(C)C#N)cc2)c2c3cc(-c4cnc5ccccc5c4)ccc3ncc21 [BEZ235 (NVP-BEZ235, Dactolisib), Dactolisib]	Example KIs that sensitize cancer cells to TRAIL-based agents.
COc1cccc(-c2cc(=O)c3ccccc3o2)c1N [PD98059]	Example KIs that sensitize cancer cells to TRAIL-based agents.
O=C(Nc1ccc(OC(F)(F)F)cc1)c1sccc1NCc1ccnc2ccccc12 [OSI-930]	Example KIs that sensitize cancer cells to TRAIL-based agents.
Cc1cc(Nc2cc(N3CCN(C)CC3)nc(/C=C/c3ccccc3)n2)n[nH]1 [ENMD-2076]	Example KIs that sensitize cancer cells to TRAIL-based agents.
CC[C@H](Nc1ncnc2[nH]cnc12)c1nc2cccc(F)c2c(=O)n1-c1ccccc1 [CAL-101 (Idelalisib, GS-1101), Idelalisib]	Example KIs that sensitize cancer cells to TRAIL-based agents.
CCO.N#CC(=C(/N)Sc1ccccc1N)/C(C#N)=C(\N)Sc1ccccc1N [U0126-EtOH]	Example KIs that sensitize cancer cells to TRAIL-based agents.

What follows are molecules tested on A549 lung carcinoma cells (assay: KI library screen for TRAIL sensitization). Settings: not given.
Assay type: cell-based, human
Description: (§1) A library of KIs was screened for TRAIL sensitization in various TRAIL-resistant cancer cells, including: HT29 (CRC), MDA-MB-231 (breast), LNCAP (prostate), DU145 (prostate), PC3 (prostate) and A549 (lung). […] The 355 KIs comprised of compounds targeting diverse kinases, including multi kinases, RTK (receptor kinase tyrosine), PI3K (phosphinistide 3-kinase), aurora kinases, including […] (mitogen-activated protein kinase). […] The interaction between KIs and TRAIL had been previously explored in vitro with the tyrosine KI sorafenib, a drug similar to regorafenib. However, such studies were mostly performed on cellular levels and not in in vivo models, combined with systemically administered recombinant TRAIL. Although a similar structure, regorafenib was newly approved in 2012. The interactions between the three other selected KIs and TRAIL have not been previously reported, in vitro or in vivo.

Molecule	KIs that sensitize cancer cells to TRAIL-based agents
CN1CC[C@H](c2c(O)cc(O)c3c(=O)cc(-c4ccccc4Cl)oc23)[C@H](O)C1 [Flavopiridol HCl]	Example KIs that sensitize cancer cells to TRAIL-based agents.
CCCCOc1c(C(=O)c2c(F)cc(C)cc2F)c[nH]c2nncc1-2 [BMS-265246]	Example KIs that sensitize cancer cells to TRAIL-based agents.
CCN1CCN(c2ccc(Nc3cc(N(C)C(=O)Nc4c(Cl)c(OC)cc(OC)c4Cl)ncn3)cc2)CC1 [BGJ398 (NVP-BGJ398)]	Example KIs that sensitize cancer cells to TRAIL-based agents.
CCc1cc(Nc2nccc(-c3c(-c4ccc(OC)c(C(=O)Nc5c(F)cccc5F)c4)nc4ccccn34)n2)c(OC)cc1N1CCC(N2CCN(S(C)(=O)=O)CC2)CC1 [GSK1904529A]	Example KIs that sensitize cancer cells to TRAIL-based agents.
N#CC1(c2ccc(NC(=O)c3cccnc3NCc3ccncc3)cc2)CCCC1 [Apatinib]	Example KIs that sensitize cancer cells to TRAIL-based agents.
O=C(NC1CCNCC1)c1[nH]ncc1NC(=O)c1c(Cl)cccc1Cl [AT7519]	Example KIs that sensitize cancer cells to TRAIL-based agents.
O=c1[nH]c2ccc(Cl)cc2c(N[C@@H]2CN3CCC2CC3)c1-c1nc2ccccc2[nH]1 [CHIR-124]	Example KIs that sensitize cancer cells to TRAIL-based agents.
Cc1ncc(-c2ccnc(Nc3ccc(S(C)(=O)=O)cc3)n2)n1C(C)C [AZD5438]	Example KIs that sensitize cancer cells to TRAIL-based agents.
CC(C)(C)c1cnc(CSc2cnc(NC(=O)C3CCNCC3)s2)o1 [SNS-032 (BMS-387032)]	Example KIs that sensitize cancer cells to TRAIL-based agents.

Each molecule was assayed on MDA-MB-231 breast cancer cells (assay: KI library screen for TRAIL sensitization). Settings: not given.
Assay type: cell-based, human
Description: as §1

Molecule	KIs that sensitize cancer cells to TRAIL-based agents
CCS(=O)(=O)c1cccc(-c2cc(C(=O)NC3CCN(C)CC3)c(C)c3[nH]c4ncc(C)cc4c23)c1 [TAK-901]	Example KIs that sensitize cancer cells to TRAIL-based agents.
CN1CC[C@H](c2c(O)cc(O)c3c(=O)cc(-c4ccccc4Cl)oc23)[C@H](O)C1 [Flavopiridol HCl]	Example KIs that sensitize cancer cells to TRAIL-based agents.
CC(C)CC(=O)Nc1[nH]nc2c1CN(C(=O)C1CCN(C)CC1)C2(C)C [PHA-793887]	Example KIs that sensitize cancer cells to TRAIL-based agents.
O=C1NCCc2[nH]c(-c3ccncc3)cc21 [PHA-767491]	Example KIs that sensitize cancer cells to TRAIL-based agents.
CCCCOc1c(C(=O)c2c(F)cc(C)cc2F)c[nH]c2nncc1-2 [BMS-265246]	Example KIs that sensitize cancer cells to TRAIL-based agents.
Cc1cc(Nc2cc(CN3CCOCC3)c3nc(C)c(Cc4ccc(Cl)cc4F)n3n2)n[nH]1 [LY2784544]	Example KIs that sensitize cancer cells to TRAIL-based agents.
Cc1cc(CN2CCN(c3c(Br)cnc4nc(-c5ccc(N6CCN(C)CC6)cc5)[nH]c34)CC2)no1 [CCT137690]	Example KIs that sensitize cancer cells to TRAIL-based agents.
C=CC(=O)Nc1cc2c(Nc3ccc(F)c(Cl)c3)ncnc2cc1OCCCN1CCOCC1 [Canertinib (CI-1033), Canertinib]	Example KIs that sensitize cancer cells to TRAIL-based agents.
Cc1cc(Nc2nc(N[C@@H](C)c3ccc(F)cc3)c(C#N)cc2F)[nH]n1 [AZ 960]	Example KIs that sensitize cancer cells to TRAIL-based agents.
CHIR-98014	Example KIs that sensitize cancer cells to TRAIL-based agents.
CC[C@H](CO)Nc1nc(NCc2ccccc2)c2ncn(C(C)C)c2n1 [Roscovitine (Seliciclib, CYC202), Roscovitine]	Example KIs that sensitize cancer cells to TRAIL-based agents.
CCOc1cc2ncc(C#N)c(Nc3ccc(F)c(Cl)c3)c2cc1NC(=O)/C=C/CN(C)C [Pelitinib (EKB-569), Pelitinib]	Example KIs that sensitize cancer cells to TRAIL-based agents.
O=c1[nH]c2ccc(Cl)cc2c(N[C@@H]2CN3CCC2CC3)c1-c1nc2ccccc2[nH]1 [CHIR-124]	Example KIs that sensitize cancer cells to TRAIL-based agents.
CC(C)(C)c1cnc(CSc2cnc(NC(=O)C3CCNCC3)s2)o1 [SNS-032 (BMS-387032)]	Example KIs that sensitize cancer cells to TRAIL-based agents.
CNC(=O)c1nn(C)c2c1C(C)(C)Cc1cnc(Nc3ccc(N4CCN(C)CC4)cc3)nc1-2 [Milciclib (PHA-848125), Milciclib]	Example KIs that sensitize cancer cells to TRAIL-based agents.
N#CCNC(=O)c1ccc(-c2ccnc(Nc3ccc(N4CCOCC4)cc3)n2)cc1 [CYT387]	Example KIs that sensitize cancer cells to TRAIL-based agents.
CC[C@@H]1C(=O)N(C)c2cnc(Nc3ccc(C(=O)N[C@H]4CC[C@H](N5CCN(CC6CC6)CC5)CC4)cc3OC)nc2N1C(C)C [Volasertib (BI 6727), Volasertib]	Example KIs that sensitize cancer cells to TRAIL-based agents.
Cc1[nH]nc2ccc(-c3cncc(OC[C@@H](N)Cc4ccccc4)c3)cc12 [A-674563]	Example KIs that sensitize cancer cells to TRAIL-based agents.
CN(c1ncccc1CNc1nc(Nc2ccc3c(c2)CC(=O)N3)ncc1C(F)(F)F)S(C)(=O)=O [PF-00562271]	Example KIs that sensitize cancer cells to TRAIL-based agents.
Cc1ccc([N+](=O)[O-])cc1S(=O)(=O)N(C)/N=C/c1cnc2ccc(Br)cn12 [PIK-75]	Example KIs that sensitize cancer cells to TRAIL-based agents.
Cc1cnc(Nc2ccc(N3CCN(C)CC3)cc2)nc1Nc1cccc(S(=O)(=O)NC(C)(C)C)c1 [TG101209]	Example KIs that sensitize cancer cells to TRAIL-based agents.
